Earlier results, collected in PMC7933317 (Probiotics and antimicrobial proteins, 2021).

System: human red blood cells (RBCs)
Conditions: over the same concentration range; ref [30]

For ALWKKLLKKLLKSAKKLG [C18G], the “hemolysis of human RBCs” value is given as less than 10%.
